pEC50, pIC50: −log10 of the molar value.
Tests used:
Norovirus = test: Antiviral activity against Norovirus replicon infected in human HG23 cells assessed as reduction in viral RNA level after 48 hrs by qRT-PCR analysis; assay type: functional, cell-based; settings: HG23, 48 h
[1] = Inhibition of Norovirus 3CL protease using Edans-DFHLQ/GPDabcyl preincubated for 30 mins followed by substrate addition and measured after 1 hr by FRET assay
[2] = Cytotoxicity against human HG23 cells assessed as reduction cell viability after 48 hrs by CytoTox 96 nonradioactive assay; assay type: cell-based

Row | pEC50 (Norovirus) | pIC50 [1] | SMILES | CC50 at 48 h [2]
1 | 6.30 | 6.49 | CC(C)(COC(=O)N[C@@H](CC1CCCCC1)C(=O)N[C@@H](C[C@@H]1CCNC1=O)C(O)S(=O)(=O)O)c1ccccc1 (some centres not stated) | 83900 nM
2 | 6.60 | 6.55 | O=C[C@H](C[C@@H]1CCNC1=O)NC(=O)[C@H](CC1CCCCC1)NC(=O)OC1(c2cccc(Cl)c2)CC1 | 36500 nM
3 | 5.27 | 5.11 | CC(C)(Cc1cccc(Cl)c1)OC(=O)N[C@@H](CC1CCCCC1)C(=O)N[C@H](C=O)C[C@@H]1CCNC1=O | 15600 nM
4 | 7.15 | 6.85 | CC(C)(COC(=O)N[C@@H](CC1CCCCC1)C(=O)N[C@@H](C[C@@H]1CCNC1=O)C(O)S(=O)(=O)O)Cc1cccc(Cl)c1 (some centres not stated) | 16200 nM
5 | 6.19 | 6.35 | CC(C)C[C@H](NC(=O)OCC(C)(C)c1ccccc1)C(=O)N[C@H](C=O)C[C@@H]1CCNC1=O | > 100000 nM
6 | 6.66 | 7.15 | CCC(=O)OC([C@H](C[C@@H]1CCNC1=O)NC(=O)[C@H](CC1CCCCC1)NC(=O)OCC(C)(C)c1cccc(Cl)c1)S(=O)(=O)O (some centres not stated) | 70500 nM
7 | 7.22 | 6.96 | CC(C)(COC(=O)N[C@@H](CC1CCCCC1)C(=O)N[C@H](C=O)C[C@@H]1CCNC1=O)Cc1cccc(Cl)c1 | 14100 nM
8 | 7.10 |  | O=C[C@H](C[C@@H]1CCNC1=O)NC(=O)[C@H](CC1CCCCC1)NC(=O)OCCCc1cccc(Cl)c1 | 30300 nM
9 | 6.82 | 7.05 | CC(=O)OC([C@H](C[C@@H]1CCNC1=O)NC(=O)[C@H](CC1CCCCC1)NC(=O)OCC(C)(C)c1cccc(Cl)c1)S(=O)(=O)O (some centres not stated) | 67000 nM
10 | 6.77 | 6.57 | CC(C)C[C@H](NC(=O)OCC(C)(C)c1cccc(Cl)c1)C(=O)N[C@H](C=O)C[C@@H]1CCNC1=O | > 100000 nM
11 | 7.10 | 6.70 | CC(C)(COC(=O)N[C@@H](CC1CCCCC1)C(=O)N[C@@H](C[C@@H]1CCNC1=O)C(O)S(=O)(=O)O)c1cccc(Cl)c1 (some centres not stated) | 14300 nM
12 | 7.15 | 6.64 | CC(C)(COC(=O)N[C@@H](CC1CCCCC1)C(=O)N[C@H](C=O)C[C@@H]1CCNC1=O)c1cccc(Cl)c1 | 13300 nM
13 | 6.22 | 6.35 | CC(C)(COC(=O)N[C@@H](CC1CCCCC1)C(=O)N[C@H](C=O)C[C@@H]1CCNC1=O)c1ccccc1 | 80100 nM
14 | 7.22 | 6.85 | O=C[C@H](C[C@@H]1CCNC1=O)NC(=O)[C@H](CC1CCCCC1)NC(=O)OC/C=C/c1cccc(Cl)c1 | 24100 nM
15 | 5.43 | 5.54 | CC(C)(OC(=O)N[C@@H](CC1CCCCC1)C(=O)N[C@H](C=O)C[C@@H]1CCNC1=O)c1cccc(Cl)c1 | > 100000 nM

Further lines, the molecule ahead of its results:

Row | SMILES | pEC50 (Norovirus) | pIC50 [1] | CC50 at 48 h [2]
16 | CC(C)(OC(=O)N[C@@H](CC1CCCCC1)C(=O)N[C@@H](C[C@@H]1CCNC1=O)C(O)S(=O)(=O)O)c1cccc(Cl)c1 (some centres not stated) | 5.54 | 5.57 | > 100000 nM
17 | CC(C)C[C@H](NC(=O)OCCCc1ccccc1)C(=O)N[C@@H](C[C@@H]1CCNC1=O)C(O)S(=O)(=O)O (some centres not stated) | 6.07 | 6.22 | > 100000 nM
18 | CC(C)C[C@H](NC(=O)OCC(C)(C)c1ccccc1)C(=O)N[C@@H](C[C@@H]1CCNC1=O)C(O)S(=O)(=O)O (some centres not stated) | 6.35 | 6.40 | > 100000 nM
19 | CC(C)C[C@H](NC(=O)OC/C=C/c1cccc(Cl)c1)C(=O)N[C@@H](C[C@@H]1CCNC1=O)C(O)S(=O)(=O)O (some centres not stated) | 7.10 | 6.96 | > 100000 nM
20 | O=C(N[C@@H](CC1CCCCC1)C(=O)N[C@@H](C[C@@H]1CCNC1=O)C(O)S(=O)(=O)O)OCCCc1cccc(Cl)c1 (some centres not stated) | 7.22 |  | 
21 | CC(C)C[C@H](NC(=O)OC/C=C/c1cccc(Cl)c1)C(=O)N[C@H](C=O)C[C@@H]1CCNC1=O | 7.10 | 6.82 | > 100000 nM
22 | CC(C)(Cc1cccc(Cl)c1)OC(=O)N[C@@H](CC1CCCCC1)C(=O)N[C@@H](C[C@@H]1CCNC1=O)C(O)S(=O)(=O)O (some centres not stated) | 5.54 | 5.17 | 20400 nM
23 | CC(C)C[C@H](NC(=O)OC1(c2cccc(Cl)c2)CC1)C(=O)N[C@@H](C[C@@H]1CCNC1=O)C(O)S(=O)(=O)O (some centres not stated) | 6.26 | 6.60 | > 100000 nM
24 | CCC(=O)OC([C@H](C[C@@H]1CCNC1=O)NC(=O)[C@H](CC1CCCCC1)NC(=O)OCC(C)(C)Cc1cccc(Cl)c1)S(=O)(=O)O (some centres not stated) | 7.00 | 6.47 | 18400 nM
25 | CC(C)C[C@H](NC(=O)OCC(C)(C)c1cccc(Cl)c1)C(=O)N[C@@H](C[C@@H]1CCNC1=O)C(O)S(=O)(=O)O (some centres not stated) | 6.72 | 6.52 | > 100000 nM
26 | CC(C)C[C@H](NC(=O)OC(C)(C)c1cccc(Cl)c1)C(=O)N[C@@H](C[C@@H]1CCNC1=O)C(O)S(=O)(=O)O (some centres not stated) | 5.74 | 5.48 | > 100000 nM
27 | CC(C)C[C@H](NC(=O)OCCCc1cccc(Cl)c1)C(=O)N[C@H](C=O)C[C@@H]1CCNC1=O | 6.80 | 6.59 | > 100000 nM
28 | O=C(N[C@@H](CC1CCCCC1)C(=O)N[C@@H](C[C@@H]1CCNC1=O)C(O)S(=O)(=O)O)OC/C=C/c1cccc(Cl)c1 (some centres not stated) | 7.15 | 6.80 | 28300 nM
29 | CC(C)C[C@H](NC(=O)OC1(c2cccc(Cl)c2)CC1)C(=O)N[C@H](C=O)C[C@@H]1CCNC1=O | 6.19 | 6.55 | > 100000 nM
30 | CC(C)C[C@H](NC(=O)OC(C)(C)Cc1cccc(Cl)c1)C(=O)N[C@H](C=O)C[C@@H]1CCNC1=O | 6.05 | 5.92 | > 100000 nM
31 | CCCCCC(=O)OC([C@H](C[C@@H]1CCNC1=O)NC(=O)[C@H](CC1CCCCC1)NC(=O)OCC(C)(C)Cc1cccc(Cl)c1)S(=O)(=O)O (some centres not stated) | 7.10 |  | 20700 nM
32 | CC(C)C[C@H](NC(=O)OCCCc1cccc(Cl)c1)C(=O)N[C@@H](C[C@@H]1CCNC1=O)C(O)S(=O)(=O)O (some centres not stated) | 7.05 | 6.72 | > 100000 nM
33 | CC(C)C[C@H](NC(=O)OCCCc1ccccc1)C(=O)N[C@H](C=O)C[C@@H]1CCNC1=O | 6.11 | 6.12 | > 100000 nM
34 | CC(=O)OC([C@H](C[C@@H]1CCNC1=O)NC(=O)[C@H](CC(C)C)NC(=O)OCC(C)(C)c1cccc(Cl)c1)S(=O)(=O)O (some centres not stated) | 6.35 | 6.89 | > 100000 nM
35 | O=C(N[C@@H](CC1CCCCC1)C(=O)N[C@@H](C[C@@H]1CCNC1=O)C(O)S(=O)(=O)O)OC1(c2cccc(Cl)c2)CC1 (some centres not stated) | 6.74 | 6.57 | 42300 nM
36 | CC(C)C[C@H](NC(=O)OC(C)(C)c1cccc(Cl)c1)C(=O)N[C@H](C=O)C[C@@H]1CCNC1=O | 5.46 | 5.42 | > 100000 nM
37 | CC(C)C[C@H](NC(=O)OC(C)(C)Cc1cccc(Cl)c1)C(=O)N[C@@H](C[C@@H]1CCNC1=O)C(O)S(=O)(=O)O (some centres not stated) | 6.15 | 6.00 | > 100000 nM

From ChEMBL document CHEMBL4665822, “Structure-Guided Optimization of Dipeptidyl Inhibitors of Norovirus 3CL Protease” (J Med Chem, 2020)
